Paper PMC11199699 (Scientific Reports, 2024)

How the values were obtained:
[1] = system: T1, PEH01S_RS21285 (type 2 L-KDFDH); experiment: spectrophotometric NADH formation at […] nm, Lineweaver-Burk; format: biochemical, Paenibacillus ehimensis; conditions: 1.5 mM NAD+, 50 mM Tris-HCl pH 8.0, 30 °C
T1 construct: pQE-80L, N-terminal (His)6-tag, expressed in E. coli, Ni-NTA

[2] = system: T2, PSMK_RS04265 (type 3 L-KDFDH); experiment: as above; format: biochemical, Phycisphaera mikurensis; conditions: 1.5 mM NAD+, 50 mM Tris-HCl pH 8.0, 30 °C
T2 construct: pQE-80L, N-terminal (His)6-tag, expressed in E. coli, Ni-NTA

- Km [1]: 529 ± 21 µM
- Km [2]: 6.08 ± 0.15 mM
SMILES: C[C@H](O)[C@@H](O)CC(=O)C(=O)O [L-KDF]
